The values that follow come from ChEMBL document CHEMBL1125529, “NMDA antagonist activity of (+/-)-(2SR,4RS)-4-(1H-tetrazol-5-ylmethyl)piperidine-2-carboxylic acid resides with the (-)-2R,4S-isomer” (J Med Chem, 1992).

Test [1] addresses Glutamate NMDA receptor. Kind of test: Compound was tested for the antagonistic activity against depolarizations due to NMDA using rat cortical slice preparation. It counts as functional.
Test [2] addresses Glutamate NMDA receptor. Kind of test: Ability to inhibit [3H]-CGS- 19755 binding to NMDA receptor. The class given is protein-complex assay.

In the case of `O=C(O)[C@H]1C[C@@H](Cc2nnn[nH]2)CCN1` (stereo in doubt; (+)-1), the IC50 (usually the concentration that inhibits the measured activity by half) was found to be 39100 nM on Glutamate NMDA receptor [1] and 2390 nM at Glutamate NMDA receptor [2].
In the case of `O=C(O)[C@H]1C[C@@H](Cc2nnn[nH]2)CCN1` (racemic), the half-inhibitory concentration (IC50) against Glutamate NMDA receptor [1] worked out at 4200 nM; on Glutamate NMDA receptor [2] it was 107 nM.
For `O=C(O)[C@H]1C[C@@H](Cc2nnn[nH]2)CCN1` (stereo in doubt) the same measures were 1900 nM and 67 nM.
